In ChEMBL document CHEMBL5465560, “Selectivity Literature for EUbOPEN Chemogenomic Library” (2024):
Each block holds one molecule with its values, some of them ahead of it.

Experiments:
[1] = biological target: T1, Myosin-IIIb (Homo sapiens) (UniProt Q8WXR4); assay: Selectivity interaction (KinomeScan (DiscoverX)) EUB0001619a MYO3B; conditions: at 1 µM
T1 sequence (whole entry): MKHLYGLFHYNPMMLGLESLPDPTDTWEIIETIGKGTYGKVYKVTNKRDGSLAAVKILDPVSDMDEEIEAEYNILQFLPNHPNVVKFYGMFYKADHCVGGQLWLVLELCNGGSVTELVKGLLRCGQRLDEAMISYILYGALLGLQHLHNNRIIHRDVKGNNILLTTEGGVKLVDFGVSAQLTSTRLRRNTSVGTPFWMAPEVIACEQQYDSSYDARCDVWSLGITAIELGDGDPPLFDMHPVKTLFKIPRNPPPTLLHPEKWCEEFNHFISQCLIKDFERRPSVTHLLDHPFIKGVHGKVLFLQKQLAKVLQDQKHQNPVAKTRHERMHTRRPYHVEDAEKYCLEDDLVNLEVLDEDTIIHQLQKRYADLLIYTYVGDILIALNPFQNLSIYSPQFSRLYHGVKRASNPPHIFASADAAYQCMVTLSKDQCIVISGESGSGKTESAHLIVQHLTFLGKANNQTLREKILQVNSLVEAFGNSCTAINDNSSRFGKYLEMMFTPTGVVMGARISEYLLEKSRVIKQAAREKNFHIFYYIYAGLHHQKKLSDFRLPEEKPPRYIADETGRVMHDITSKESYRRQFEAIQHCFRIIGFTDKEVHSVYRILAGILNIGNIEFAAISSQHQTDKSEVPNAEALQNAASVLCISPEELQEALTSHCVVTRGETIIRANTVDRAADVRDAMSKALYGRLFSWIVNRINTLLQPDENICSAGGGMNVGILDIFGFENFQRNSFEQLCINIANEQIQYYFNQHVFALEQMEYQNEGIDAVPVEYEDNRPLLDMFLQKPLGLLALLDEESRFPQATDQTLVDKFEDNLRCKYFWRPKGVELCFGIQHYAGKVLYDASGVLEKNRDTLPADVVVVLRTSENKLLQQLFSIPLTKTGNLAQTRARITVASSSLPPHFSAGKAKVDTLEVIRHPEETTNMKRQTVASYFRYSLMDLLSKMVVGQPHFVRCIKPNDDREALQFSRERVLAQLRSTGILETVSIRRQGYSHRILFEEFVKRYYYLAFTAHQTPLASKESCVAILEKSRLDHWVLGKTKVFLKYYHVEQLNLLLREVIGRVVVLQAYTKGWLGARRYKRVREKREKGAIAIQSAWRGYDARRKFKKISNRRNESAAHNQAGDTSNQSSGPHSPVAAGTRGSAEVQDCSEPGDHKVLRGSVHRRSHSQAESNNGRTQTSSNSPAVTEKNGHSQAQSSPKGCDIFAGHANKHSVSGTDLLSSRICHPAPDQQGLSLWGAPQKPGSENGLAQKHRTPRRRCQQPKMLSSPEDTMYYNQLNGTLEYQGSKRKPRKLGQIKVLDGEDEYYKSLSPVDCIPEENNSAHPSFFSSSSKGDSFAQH

[2] = biological target: T2, Protein arginine N-methyltransferase 9 (Homo sapiens) (UniProt Q6P2P2); assay: Selectivity interaction (Transferase panel (protein, RNA, and DNA methyltransferases. and EP300 (acetyltransferase))) EUB0000270b PRMT9
T2 sequence (whole entry): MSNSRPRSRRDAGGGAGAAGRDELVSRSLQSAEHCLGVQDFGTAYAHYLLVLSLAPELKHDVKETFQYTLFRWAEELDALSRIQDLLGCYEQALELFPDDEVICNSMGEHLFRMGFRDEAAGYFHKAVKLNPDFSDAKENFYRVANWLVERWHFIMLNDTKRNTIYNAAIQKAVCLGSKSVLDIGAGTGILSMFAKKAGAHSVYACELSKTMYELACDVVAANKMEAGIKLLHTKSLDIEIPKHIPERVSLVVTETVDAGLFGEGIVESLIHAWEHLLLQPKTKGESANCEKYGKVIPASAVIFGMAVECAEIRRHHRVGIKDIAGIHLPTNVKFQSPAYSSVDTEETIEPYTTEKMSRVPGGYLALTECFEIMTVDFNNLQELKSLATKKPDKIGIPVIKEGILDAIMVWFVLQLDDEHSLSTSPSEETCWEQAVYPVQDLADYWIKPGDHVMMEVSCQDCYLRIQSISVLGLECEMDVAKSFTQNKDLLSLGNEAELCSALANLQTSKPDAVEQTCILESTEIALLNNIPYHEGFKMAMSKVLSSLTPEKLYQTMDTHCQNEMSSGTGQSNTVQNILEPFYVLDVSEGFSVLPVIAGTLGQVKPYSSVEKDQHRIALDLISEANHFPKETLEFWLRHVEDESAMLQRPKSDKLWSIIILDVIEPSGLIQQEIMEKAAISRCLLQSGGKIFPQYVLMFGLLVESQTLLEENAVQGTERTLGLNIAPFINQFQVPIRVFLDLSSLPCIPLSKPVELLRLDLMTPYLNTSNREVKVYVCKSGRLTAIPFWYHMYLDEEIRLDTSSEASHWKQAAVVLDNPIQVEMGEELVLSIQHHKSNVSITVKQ

[3] = biological target: Leucine-rich repeat serine/threonine-protein kinase 2 (Homo sapiens, UniProt Q5S007); assay: (§1) Selectivity interaction (KinomeScan (DiscoverX)) EUB0000666a LRRK2; conditions: at 10 µM
[4] = system: Leucine-rich repeat serine/threonine-protein kinase 2 (Homo sapiens), Q5S007 [G2019S]; assay: as §1; conditions: at 10 µM
Leucine-rich repeat serine/threonine-protein kinase 2 (Homo sapiens), Q5S007 [G2019S], sequence (Q5S007 whole entry G2019S): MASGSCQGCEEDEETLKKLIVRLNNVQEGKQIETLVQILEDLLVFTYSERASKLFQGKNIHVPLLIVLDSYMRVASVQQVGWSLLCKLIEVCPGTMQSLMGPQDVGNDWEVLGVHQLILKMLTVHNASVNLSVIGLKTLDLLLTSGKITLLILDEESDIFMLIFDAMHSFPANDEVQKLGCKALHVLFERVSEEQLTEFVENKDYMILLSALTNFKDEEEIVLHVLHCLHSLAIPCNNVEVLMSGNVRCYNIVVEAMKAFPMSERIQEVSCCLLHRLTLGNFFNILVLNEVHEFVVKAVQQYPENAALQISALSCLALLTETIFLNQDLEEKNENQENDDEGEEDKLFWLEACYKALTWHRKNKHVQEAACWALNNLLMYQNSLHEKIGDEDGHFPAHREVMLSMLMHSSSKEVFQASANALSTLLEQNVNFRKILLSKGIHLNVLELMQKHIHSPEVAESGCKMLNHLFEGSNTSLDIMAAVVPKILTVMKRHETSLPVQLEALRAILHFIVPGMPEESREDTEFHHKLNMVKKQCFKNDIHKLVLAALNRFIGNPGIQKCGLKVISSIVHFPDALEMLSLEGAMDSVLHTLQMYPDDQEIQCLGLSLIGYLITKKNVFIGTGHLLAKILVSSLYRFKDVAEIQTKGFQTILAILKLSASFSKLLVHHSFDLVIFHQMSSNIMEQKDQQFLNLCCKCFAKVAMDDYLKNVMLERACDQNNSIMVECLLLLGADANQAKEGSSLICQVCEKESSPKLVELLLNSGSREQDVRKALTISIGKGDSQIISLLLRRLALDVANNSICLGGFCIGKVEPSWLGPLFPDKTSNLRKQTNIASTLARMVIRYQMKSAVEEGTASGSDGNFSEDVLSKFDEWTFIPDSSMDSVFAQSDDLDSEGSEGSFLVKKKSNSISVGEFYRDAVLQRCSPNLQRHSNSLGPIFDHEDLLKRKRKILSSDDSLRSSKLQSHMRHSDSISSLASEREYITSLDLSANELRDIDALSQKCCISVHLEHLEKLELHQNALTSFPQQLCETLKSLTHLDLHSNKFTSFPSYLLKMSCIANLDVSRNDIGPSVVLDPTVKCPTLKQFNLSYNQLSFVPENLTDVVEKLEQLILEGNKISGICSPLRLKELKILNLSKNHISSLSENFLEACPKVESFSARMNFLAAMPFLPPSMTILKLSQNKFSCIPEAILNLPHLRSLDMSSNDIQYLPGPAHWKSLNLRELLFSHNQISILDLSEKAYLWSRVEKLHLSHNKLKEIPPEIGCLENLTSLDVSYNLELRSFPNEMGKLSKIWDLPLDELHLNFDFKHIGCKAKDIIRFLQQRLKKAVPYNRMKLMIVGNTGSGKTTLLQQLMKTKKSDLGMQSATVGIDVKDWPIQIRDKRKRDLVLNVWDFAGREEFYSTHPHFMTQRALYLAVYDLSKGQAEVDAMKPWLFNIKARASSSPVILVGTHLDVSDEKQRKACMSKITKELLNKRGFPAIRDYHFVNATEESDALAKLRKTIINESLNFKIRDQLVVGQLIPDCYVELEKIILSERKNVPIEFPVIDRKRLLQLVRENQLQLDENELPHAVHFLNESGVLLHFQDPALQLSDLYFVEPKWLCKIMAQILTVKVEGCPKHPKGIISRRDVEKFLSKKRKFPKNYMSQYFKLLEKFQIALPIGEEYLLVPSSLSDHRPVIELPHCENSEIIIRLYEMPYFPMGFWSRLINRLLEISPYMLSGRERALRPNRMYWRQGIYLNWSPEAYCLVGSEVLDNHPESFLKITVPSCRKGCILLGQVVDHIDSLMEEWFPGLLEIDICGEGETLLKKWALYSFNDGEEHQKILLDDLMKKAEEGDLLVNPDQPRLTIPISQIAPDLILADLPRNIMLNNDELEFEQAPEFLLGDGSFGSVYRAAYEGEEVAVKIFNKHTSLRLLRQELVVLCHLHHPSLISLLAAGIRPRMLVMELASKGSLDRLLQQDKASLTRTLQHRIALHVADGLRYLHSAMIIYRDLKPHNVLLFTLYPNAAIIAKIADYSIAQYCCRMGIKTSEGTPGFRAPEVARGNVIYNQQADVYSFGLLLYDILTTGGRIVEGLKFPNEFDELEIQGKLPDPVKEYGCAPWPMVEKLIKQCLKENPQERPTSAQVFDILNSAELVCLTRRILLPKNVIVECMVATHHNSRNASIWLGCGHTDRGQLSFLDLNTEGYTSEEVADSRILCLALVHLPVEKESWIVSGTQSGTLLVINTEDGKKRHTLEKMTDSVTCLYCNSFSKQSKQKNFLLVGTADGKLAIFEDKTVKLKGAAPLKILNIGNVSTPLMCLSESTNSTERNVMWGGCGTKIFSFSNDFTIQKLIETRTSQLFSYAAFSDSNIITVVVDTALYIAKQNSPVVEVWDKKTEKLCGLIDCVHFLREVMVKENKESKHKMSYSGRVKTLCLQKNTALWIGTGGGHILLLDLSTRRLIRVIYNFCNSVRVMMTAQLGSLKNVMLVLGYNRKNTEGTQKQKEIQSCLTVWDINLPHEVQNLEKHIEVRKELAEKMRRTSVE

Leucine-rich repeat serine/threonine-protein kinase 2, sequence (Q5S007 whole entry): as the sequence (Q5S007 whole entry G2019S) above, with S2019G counted along it

Structure (SMILES): N#Cc1cccc(-c2c[nH]c3ncnc(N4CCOCC4)c23)c1
- % of control [1]: 100%

- % activity ([2]; at 1 µM): > 90%
- % activity ([2]; at 10 µM): > 80%
Structure (SMILES): Cc1cc(CN)cc(C)c1-c1ncn(C)c1-c1cncn1C

Structure (SMILES): O=C(NOC[C@H](O)CO)c1ccc(F)c(F)c1Nc1ccc(I)cc1F
- % of control [3]: 86%
- % of control [4]: 100%
